Test [1] relates to Beet Armyworm (Spodoptera exigua) ("BAW"), second instar larvae. Kind of test: Bioassay on beet armyworm (BAW), 128-well diet tray assay. To be noted: for pest or weed control at 50 µg/cm2: Spodoptera exigua, read-out: BAW rating; for BAW rating: Table ABC, species BAW, C = not tested, D = no activity noticed. The test is classed as in vivo. The procedure, abridged: (§1)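 Covered trays were held at 25° C. under a 14:10 light-dark cycle for five to seven days. Percent mortality was then scored in each well, and activity across eight wells was averaged.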

Test [2] has as its system Cabbage Looper (Trichoplusia ni) ("CL"), second instar larvae. Kind of test: Bioassay on cabbage looper (CL), 128-well diet tray assay. The test is classed as in vivo. To be noted: for pest or weed control at 50 µg/cm2: Trichoplusia ni, read-out: CL rating; for CL rating: Table ABC, species CL, C = not tested, D = no activity noticed. The procedure, abridged:
as §1

These results are taken from patent publication US20230077362A1 (CORTEVA AGRISCIENCE LLC, priority 2019, published 2023).

On to `Cc1ccc(C(C)C)c(N2C(=O)CS/C2=N\C(=O)Nc2ccc(-n3cnc(-c4ccc(C(F)(F)F)cc4)n3)cc2F)c1` [Compound J694, (Z)-1-(2-Fluoro-4-(3-(4-(trifluoromethyl)phenyl)-1H-1,2,4-triazol-1-yl)phenyl)-3-(3-(2-isopropyl-5-methylphenyl)-4-oxothiazolidin-2-ylidene)urea], for which the pest or weed control at 50 µg/cm2 in test [1] and in test [2] was 50 to 100% each time.

As for `COC(C)c1ccc(C)cc1N1C(=O)CS/C1=N\C(=O)Nc1ccc(-n2cnc(-c3ccc(C(F)(F)F)cc3)n2)cc1F` (stereo not drawn) [Compound J695, (Z)-1-(2-Fluoro-4-(3-(4-(trifluoromethyl)phenyl)-1H-1,2,4-triazol-1-yl)phenyl)-3-(3-(2-(1-methoxyethyl)-5-methylphenyl)-4-oxothiazolidin-2-ylidene)urea], the pest or weed control at 50 µg/cm2 in test [1] and in test [2] was 50 to 100% in each case.

As for `COC(c1ccc(C)cc1N1C(=O)CS/C1=N\C(=O)Nc1ccc(-n2cnc(-c3ccc(C(F)(F)F)cc3)n2)cc1F)C(F)(F)F` (stereo not drawn) [Compound J696, (Z)-1-(2-Fluoro-4-(3-(4-(trifluoromethyl)phenyl)-1H-1,2,4-triazol-1-yl)phenyl)-3-(3-(5-methyl-2-(2,2,2-trifluoro-1-methoxyethyl)phenyl)-4-oxothiazolidin-2-ylidene)urea], the pest or weed control at 50 µg/cm2 in test [1] and in test [2] was 50 to 100% each time.

Turning to `CN(C)c1ccc(OCC(F)(F)F)c(N2C(=O)CS/C2=N\C(=O)Nc2ccc(-n3cnc(-c4ccc(C(F)(F)F)cc4)n3)cc2F)c1` [Compound J697, (Z)-1-(3-(5-(Dimethylamino)-2-(2,2,2-trifluoroethoxy)phenyl)-4-oxothiazolidin-2-ylidene)-3-(2-fluoro-4-(3-(4-(trifluoromethyl)phenyl)-1H-1,2,4-triazol-1-yl)phenyl)urea], the pest or weed control at 50 µg/cm2 in test [1] and in test [2] was 50 to 100% throughout.

As for `Cc1ccc(COCC(F)(F)F)c(N2C(=O)CS/C2=N\C(=O)Nc2ccc(-n3cnc(-c4ccc(C(F)(F)F)cc4)n3)cc2F)c1` [Compound J698, (Z)-1-(2-fluoro-4-(3-(4-(trifluoromethyl)phenyl)-1H-1,2,4-triazol-1-yl)phenyl)-3-(3-(5-methyl-2-((2,2,2-trifluoroethoxy)methyl)phenyl)-4-oxothiazolidin-2-ylidene)urea], the pest or weed control at 50 µg/cm2 in test [1] and in test [2] was 50 to 100% in each case.

Take `O=C(/N=C1\SCC(=O)N1c1cc(F)ccc1COCC(F)(F)F)Nc1ccc(-n2cnc(-c3ccc(C(F)(F)F)cc3)n2)cc1F` [Compound J699, (Z)-1-(3-(5-Fluoro-2-((2,2,2-trifluoroethoxy)methyl)phenyl)-4-oxothiazolidin-2-ylidene)-3-(2-fluoro-4-(3-(4-(trifluoromethyl)phenyl)-1H-1,2,4-triazol-1-yl)phenyl)urea]: the pest or weed control at 50 µg/cm2 in test [1] and in test [2] was 50 to 100% each time.

On to `COc1ccc(COCC(F)(F)F)c(N2C(=O)CS/C2=N\C(=O)Nc2ccc(-n3cnc(-c4ccc(C(F)(F)F)cc4)n3)cc2F)c1` [Compound J700, (Z)-1-(2-Fluoro-4-(3-(4-(trifluoromethyl)phenyl)-1H-1,2,4-triazol-1-yl)phenyl)-3-(3-(5-methoxy-2-((2,2,2-trifluoroethoxy)methyl)phenyl)-4-oxothiazolidin-2-ylidene)urea], for which the pest or weed control at 50 µg/cm2 in test [1] and in test [2] was 50 to 100% each time.

For `Cc1ccc(COCC(F)F)c(N2C(=O)CS/C2=N\C(=O)Nc2ccc(-n3cnc(-c4ccc(C(F)(F)F)cc4)n3)cc2F)c1` [Compound J701, (Z)-1-(3-(2-((2,2-Difluoroethoxy)methyl)-5-methylphenyl)-4-oxothiazolidin-2-ylidene)-3-(2-fluoro-4-(3-(4-(trifluoromethyl)phenyl)-1H-1,2,4-triazol-1-yl)phenyl)urea], the pest or weed control at 50 µg/cm2 in test [1] and in test [2] was 50 to 100% throughout.

Consider `Cc1ccc(OCCC(F)(F)F)c(N2C(=O)CS/C2=N\C(=O)Nc2ccc(-n3cnc(-c4ccc(C(F)(F)F)cc4)n3)cc2F)c1` [Compound J702, (Z)-1-(2-Fluoro-4-(3-(4-(trifluoromethyl)phenyl)-1H-1,2,4-triazol-1-yl)phenyl)-3-(3-(5-methyl-2-(3,3,3-trifluoropropoxy)phenyl)-4-oxothiazolidin-2-ylidene)urea], for which the pest or weed control at 50 µg/cm2 in test [1] and in test [2] was 50 to 100% in each case.

For the molecule `Cc1cccc(N2C(=O)CS/C2=N\C(=O)Nc2ccc(-n3cnc(-c4ccc(OC(F)(F)F)cc4)n3)cc2F)c1COCC(F)(F)F` [Compound J703, (Z)-1-(2-Fluoro-4-(3-(4-(trifluoromethoxy)phenyl)-1H-1,2,4-triazol-1-yl)phenyl)-3-(3-(3-methyl-2-((2,2,2-trifluoroethoxy)methyl)phenyl)-4-oxothiazolidin-2-ylidene)urea], the pest or weed control at 50 µg/cm2 in test [1] and in test [2] was 50 to 100% in each case.

For the molecule `Cc1cccc(N2C(=O)CS/C2=N\C(=O)Nc2ccc(-n3cnc(-c4ccc(C(F)(F)F)cc4)n3)cc2F)c1COCC(F)(F)F` [Compound J704, (Z)-1-(2-Fluoro-4-(3-(4-(trifluoromethyl)phenyl)-1H-1,2,4-triazol-1-yl)phenyl)-3-(3-(3-methyl-2-((2,2,2-trifluoroethoxy)methyl)phenyl)-4-oxothiazolidin-2-ylidene)urea], the pest or weed control at 50 µg/cm2 in test [1] and in test [2] was 50 to 100% throughout.

For `Cc1ccc(COCC(F)(F)F)c(N2C(=O)CS/C2=N\C(=O)Nc2ccc(-c3ncn(-c4cccc(OC(F)(F)F)c4)n3)cc2F)c1` [Compound J705], in test [1], the BAW rating result is on record as “A (50-100)”. Also, the CL rating result in test [2] is “A (50-100)”.

Consider `Cc1cccc(N2C(=O)CS/C2=N\C(=O)Nc2ccc(-c3ncn(-c4cccc(OC(F)(F)F)c4)n3)cc2F)c1COCC(F)(F)F` [Compound J706], for which the BAW rating result in test [1] is “A (50-100)”. Further, the CL rating result in test [2] is recorded as “A (50-100)”.

Consider `Cc1ccc(COCC(F)(F)F)c(N2C(=O)CS/C2=N\C(=O)Nc2ccc(-c3ncn(-c4cccc(C(F)(F)F)c4)n3)cc2F)c1` [Compound J710], for which the BAW rating entry in test [1] is “A (50-100)”. Moreover, the CL rating result in test [2] was “A (50-100)”.

As to `CCOCc1ccc(C)cc1N1C(=O)CS/C1=N\C(=O)Nc1ccc(-c2ncn(-c3cccc(OC(F)(F)F)c3)n2)cc1F` [Compound J711], in test [1], the BAW rating result is given as “A (50-100)”. Also, the CL rating entry in test [2] is recorded as “A (50-100)”.

Turning to `Cc1ccc(COCC(F)(F)F)c(N2C(=O)CS/C2=N\C(=O)Nc2ccc(-c3ncn(-c4cccc(OC(F)(F)F)c4)n3)cc2C)c1` [Compound J722], the BAW rating entry in test [1] is “A (50-100)”. For the same molecule, the CL rating entry in test [2] was “A (50-100)”.

Regarding `CCOCc1ccc(C)cc1N1C(=O)CS/C1=N\C(=O)Nc1ccc(-c2ncn(-c3cccc(C(F)(F)F)c3)n2)cc1F` [Compound J723], the BAW rating entry in test [1] was “A (50-100)”. Moreover, the CL rating entry in test [2] is listed as “A (50-100)”.

On to `CCOCc1ccc(C)cc1N1C(=O)CS/C1=N\C(=O)Nc1ccc(-c2ncn(-c3cccc(OC(F)(F)F)c3)n2)cc1C` [Compound J726], for which, in test [1], the BAW rating result was “A (50-100)”. Also, the CL rating result in test [2] is “A (50-100)”.

As to `Cc1ccc(COCC(F)(F)F)c(N2C(=O)CS/C2=N\C(=O)Nc2ccc(-c3ncn(-c4cccc(C(F)(F)F)c4)n3)cc2C)c1` [Compound J727], the BAW rating entry in test [1] is “A (50-100)”. The CL rating result in test [2] is on record as “A (50-100)”.

Regarding `Cc1ccc(C(C)C)c(N2C(=O)CS/C2=N\C(=O)Nc2ccc(-n3cnc(-c4ccc(OC(F)(F)F)cc4)n3)cc2Cl)c1` [Compound J728, (Z)-1-(2-Chloro-4-(3-(4-(trifluoromethoxy)phenyl)-1H-1,2,4-triazol-1-yl)phenyl)-3-(3-(2-isopropyl-5-methylphenyl)-4-oxothiazolidin-2-ylidene)urea], the pest or weed control at 50 µg/cm2 in test [1] and in test [2] was 50 to 100% throughout.

On to `COC(c1ccc(C)cc1N1C(=O)CS/C1=N\C(=O)Nc1ccc(-n2cnc(-c3ccc(OC(F)(F)F)cc3)n2)cc1Cl)C(F)(F)F` (stereo not drawn) [Compound J729, (Z)-1-(2-Chloro-4-(3-(4-(trifluoromethoxy)phenyl)-1H-1,2,4-triazol-1-yl)phenyl)-3-(3-(5-methyl-2-(2,2,2-trifluoro-1-methoxyethyl)phenyl)-4-oxothiazolidin-2-ylidene)urea], for which the pest or weed control at 50 µg/cm2 in test [1] and in test [2] was 50 to 100% each time.

Take `COCc1ccc(C)cc1N1C(=O)CS/C1=N\C(=O)Nc1ccc(-n2cnc(-c3ccc(OC(F)(F)F)cc3)n2)cc1Cl` [Compound J730, (Z)-1-(2-Chloro-4-(3-(4-(trifluoromethoxy)phenyl)-1H-1,2,4-triazol-1-yl)phenyl)-3-(3-(2-(methoxymethyl)-5-methylphenyl)-4-oxothiazolidin-2-ylidene)urea]: the pest or weed control at 50 µg/cm2 in test [1] and in test [2] was 50 to 100% each time.

With `O=C(/N=C1\SCC(=O)N1c1ccccc1COCC(F)(F)F)Nc1ccc(-n2cnc(-c3ccc(OC(F)(F)F)cc3)n2)cc1Cl` [Compound J732, (Z)-1-(2-Chloro-4-(3-(4-(trifluoromethoxy)phenyl)-1H-1,2,4-triazol-1-yl)phenyl)-3-(4-oxo-3-(2-((2,2,2-trifluoroethoxy)methyl)phenyl)thiazolidin-2-ylidene)urea], the pest or weed control at 50 µg/cm2 in test [1] and in test [2] was 50 to 100% each time.

Turning to `Cc1cc(COCC(F)(F)F)c(N2C(=O)CS/C2=N\C(=O)Nc2ccc(-n3cnc(-c4ccc(OC(F)(F)F)cc4)n3)cc2Cl)cc1C` [Compound J733, (Z)-1-(2-Chloro-4-(3-(4-(trifluoromethoxy)phenyl)-1H-1,2,4-triazol-1-yl)phenyl)-3-(3-(4,5-dimethyl-2-((2,2,2-trifluoroethoxy)methyl)phenyl)-4-oxothiazolidin-2-ylidene)urea], the pest or weed control at 50 µg/cm2 in test [1] and in test [2] was 50 to 100% each time.
